Converted amounts (≈) assume the structure as drawn. “And” between values parts separate entries of the source, which are not always exact repeats. Equal values may be shown once. Read-outs that look alike come from different tables or passages of the source. Each block holds one compound with its values, some of them ahead of it. Bridge positions count the residues as written; N and C are the ends. Square brackets hold non-standard residues; d marks the D form. Peptide text beside a SMILES is read from it. Orn = NCCC[C@H](N)C(=O)O
Assays:
C. acnes ATCC11827 [1] = conditions: cited from earlier work
Text: (§1) Table 1 Growth Inhibition of dAMPs (MICs, µg/mL) against C. acnes Isolates. | column: Antibiotic Sensitivity / Tetra ^#; Antibiotic Sensitivity / Ery ^#; Antibiotic Sensitivity / Clind ^#

C. acnes ATCC6919 [2] = conditions: cited from earlier work
Text: as §1

C. acnes HL007PA1 [3] = conditions: cited from earlier work
Text: as §1

C. acnes HL013PA1 [4] = conditions: cited from earlier work
Text: as §1

C. acnes HL038PA1 [5] = conditions: cited from earlier work
Text: as §1

C. acnes HL043PA1 [6] = conditions: cited from earlier work
Text: as §1

C. acnes HL043PA2 [7] = conditions: cited from earlier work
Text: as §1

C. acnes HL045PA1 [8] = conditions: cited from earlier work
Text: as §1

C. acnes HL053PA1 [9] = conditions: cited from earlier work
Text: as §1

C. acnes HL056PA1 [10] = conditions: cited from earlier work
Text: as §1

C. acnes HL072PA1 [11] = conditions: cited from earlier work
Text: as §1

C. acnes HL082PA2 [12] = conditions: cited from earlier work
Text: as §1

C. acnes ATCC11827 [13] = assay type: cell-based, Cutibacterium acnes
Method: (§2) The ten antibiotic resistant C. acnes clinical isolates were acquired from BEI resources with the two reference strains obtained from American Type Culture Collection (ATCC, Manassas, VA, USA). C. acnes is a relatively slow-growing, typically aerotolerant anaerobic so all in vitro C. acnes experiments were performed under anaerobic conditions.
(§3) Single colonies were inoculated in Reinforced Clostridium Medium (RCM) broth supplemented with sodium thioglycolate and incubated at 37 °C, with shaking at 200 rpm, for 2 or 3 days to reach logarithmic growth (OD600nm = 1.0). Each C. acnes (1 × 10^6 CFU per mL) was incubated with dAMP or clindamycin at two-fold serial dilutions (0.5–32 μg per mL) in RCM on a 96-well microplate for 48 h. Three replicas were included for each test article concentration. Bacterial growth was measured by optical density at 600 nm to determine the MIC for each dAMP applied.

C. acnes ATCC6919 [14] = assay type: cell-based, Cutibacterium acnes
Method: as §2, §3

C. acnes HL007PA1 [15] = assay type: cell-based, Cutibacterium acnes
Method: as §2, §3

C. acnes HL013PA1 [16] = assay type: cell-based, Cutibacterium acnes
Method: as §2, §3

C. acnes HL038PA1 [17] = assay type: cell-based, Cutibacterium acnes
Method: as §2, §3

C. acnes HL043PA1 [18] = assay type: cell-based, Cutibacterium acnes
Method: as §2, §3

C. acnes HL043PA2 [19] = assay type: cell-based, Cutibacterium acnes
Method: as §2, §3

C. acnes HL045PA1 [20] = assay type: cell-based, Cutibacterium acnes
Method: as §2, §3

C. acnes HL053PA1 [21] = assay type: cell-based, Cutibacterium acnes
Method: as §2, §3

C. acnes HL056PA1 [22] = assay type: cell-based, Cutibacterium acnes
Method: as §2, §3

C. acnes HL072PA1 [23] = assay type: cell-based, Cutibacterium acnes
Method: as §2, §3

C. acnes HL082PA2 [24] = assay type: cell-based, Cutibacterium acnes
Method: as §2, §3

[25] = system: ten C. acnes clinical isolates and two C. acnes ATCC reference strains; assay type: cell-based, Cutibacterium acnes; conditions: for in vitro anti-bacterial activity against the C. acnes bacterial strains (in words): 0.5–32 μg/mL concentration range evaluated
Method: as §2, §3

[26] = system: bioluminescent human immortalized keratinocytes (HaCaT); test: Mammalian cytotoxicity, bioluminescent human keratinocytes; assay type: cell-based
Method: (§4) Noninvasive and real-time monitoring of mammalian cytotoxicity to assess the potential skin toxicity of the dAMPs was evaluated using bioluminescent human immortalized keratinocytes (HaCaT, AddexBio, San Diego, CA, USA). The bioluminescent variant of HaCaT was constructed by transfection with a luciferase gene (RediFect Red-Fluc-Puromycin, Cat# CL596002). Keratinocytes (1 × 10^4 cells, 100 μL) were plated in 96-well black-walled plates. The candidate dAMPs were 2-fold serially diluted from 1024 µg/mL in growth medium supplemented with 150 µg/mL D-luciferin. Each concentration was performed in triplicate, with the final volume being 200 μL. Imaging was performed at select times (0, 15, and 30 min and 1, 3, 5, and 8 h) after the addition of the dAMP, and compared to concurrently run vehicle-control, using an IVIS Lumina imaging system (Caliper Life Sciences, Inc., Hopkinton, MA, USA). For imaging, the 96-well plate was positioned on the stage (12.5-cm field of view), with an open emission filter, binning of 4, and f-stop 1 and a 1-min exposure time. Data analysis was performed using the Living Image software program (version 4.3, Caliper Life Sciences, Inc.). The dAMP concentrations required to kill 10% and 50% of keratinocytes were determined using GraphPad Prism 7 (GraphPad Software, San Diego, CA, USA).

[27] = system: C. acnes HL043PA2 compared to human keratinocytes; assay type: cell-based
Method: In evaluating the clinical utility of each of the candidate dAMPs for C. acnes treatment, the Therapeutic Index was determined. The Therapeutic Index is defined as the ratio of concentration at which the dAMP is active against the prokaryotic C. acnes pathogen without inducing cytotoxic damage to the surrounding mammalian cells. The EC10 and EC50 doses, defined as the concentrations required to kill 10% and 50% respectively of human keratinocytes following 8 h incubation with each of the Riptide dAMPs, are tabulated and graphed in Table 2 and Figure 3, respectively. The larger the Therapeutic Index, the greater the specificity of the dAMP for destroying C. acnes cells.
as §3, §4

SMILES: CCC[C@@H]1C[C@@H](C(=O)N[C@@H]([C@H]2O[C@H](SC)[C@H](O)[C@@H](O)[C@H]2O)[C@H](C)Cl)N(C)C1 [Clind, clindamycin]
Antibiotic Sensitivity, Clind (C. acnes ATCC11827 [1]): S (S, sensitive)
Antibiotic Sensitivity, Clind (C. acnes ATCC6919 [2]): S (S, sensitive)
Antibiotic Sensitivity, Clind (C. acnes HL007PA1 [3]): R (Antibiotic resistance to clindamycin defined by MIC ≥ 32 μg/mL)
Antibiotic Sensitivity, Clind (C. acnes HL013PA1 [4]): R (Antibiotic resistance to clindamycin defined by MIC ≥ 32 μg/mL)
Antibiotic Sensitivity, Clind (C. acnes HL038PA1 [5]): R (Antibiotic resistance to clindamycin defined by MIC ≥ 32 μg/mL)
Antibiotic Sensitivity, Clind (C. acnes HL043PA1 [6]): R (Antibiotic resistance to clindamycin defined by MIC ≥ 32 μg/mL)
Antibiotic Sensitivity, Clind (C. acnes HL043PA2 [7]): R (Antibiotic resistance to clindamycin defined by MIC ≥ 32 μg/mL)
Antibiotic Sensitivity, Clind (C. acnes HL045PA1 [8]): R (Antibiotic resistance to clindamycin defined by MIC ≥ 32 μg/mL)
Antibiotic Sensitivity, Clind (C. acnes HL053PA1 [9]): R (Antibiotic resistance to clindamycin defined by MIC ≥ 32 μg/mL)
Antibiotic Sensitivity, Clind (C. acnes HL056PA1 [10]): R (Antibiotic resistance to clindamycin defined by MIC ≥ 32 μg/mL)
Antibiotic Sensitivity, Clind (C. acnes HL072PA1 [11]): R (Antibiotic resistance to clindamycin defined by MIC ≥ 32 μg/mL)
Antibiotic Sensitivity, Clind (C. acnes HL082PA2 [12]): S (S, sensitive)

SMILES: CC[C@H](C)[C@@H]1NC(=O)CNC(=O)[C@H](CCCCN)NC(=O)[C@H](Cc2ccc(O)cc2)NC(=O)[C@@H]2CSSC[C@H](NC1=O)C(=O)N[C@@H](Cc1ccccc1)C(=O)N[C@@H](CCCCN)C(=O)N[C@@H](CCCCN)C(=O)N[C@H](C(=O)N[C@@H](CCCCN)C(N)=O)CSSC[C@H](NC(=O)[C@H](Cc1ccccc1)NC(=O)[C@@H](N)CCCNC(=N)N)C(=O)N[C@@H](Cc1c[nH]c3ccccc13)C(=O)N[C@@H](CCCCN)C(=O)N[C@@H](C(C)C)C(=O)N2 [RP557] (H-RFCWKVCYKGICFKKCK-NH2; disulfide 3-16, 7-12)
MIC (C. acnes ATCC11827 [13]; C. acnes ATCC11827, RCM broth, anaerobic, 1 × 10^6 CFU per mL, two-fold dilutions 0.5–32 μg/mL, 48 h, OD 600 nm, mean of three replicates): 8 µg/mL (≈ 3.75 µM)
MIC (C. acnes ATCC6919 [14]; C. acnes ATCC6919, RCM broth, anaerobic, 1 × 10^6 CFU per mL, two-fold dilutions 0.5–32 μg/mL, 48 h, OD 600 nm, mean of three replicates): 8 µg/mL (≈ 3.75 µM)
MIC (C. acnes HL007PA1 [15]; C. acnes HL007PA1, RCM broth, anaerobic, 1 × 10^6 CFU per mL, two-fold dilutions 0.5–32 μg/mL, 48 h, OD 600 nm, mean of three replicates): 8 µg/mL (≈ 3.75 µM)
MIC (C. acnes HL013PA1 [16]; C. acnes HL013PA1, RCM broth, anaerobic, 1 × 10^6 CFU per mL, two-fold dilutions 0.5–32 μg/mL, 48 h, OD 600 nm, mean of three replicates): 2 µg/mL (≈ 0.936 µM)
MIC (C. acnes HL038PA1 [17]; C. acnes HL038PA1, RCM broth, anaerobic, 1 × 10^6 CFU per mL, two-fold dilutions 0.5–32 μg/mL, 48 h, OD 600 nm, mean of three replicates): 8 µg/mL (≈ 3.75 µM)
MIC (C. acnes HL043PA1 [18]; C. acnes HL043PA1, RCM broth, anaerobic, 1 × 10^6 CFU per mL, two-fold dilutions 0.5–32 μg/mL, 48 h, OD 600 nm, mean of three replicates): 8 µg/mL (≈ 3.75 µM)
MIC (C. acnes HL043PA2 [19]; C. acnes HL043PA2 (multi-drug resistant), RCM broth, anaerobic, 1 × 10^6 CFU per mL, two-fold dilutions 0.5–32 μg/mL, 48 h, OD 600 nm, mean of three replicates): 8 µg/mL (≈ 3.75 µM)
MIC (C. acnes HL045PA1 [20]; C. acnes HL045PA1, RCM broth, anaerobic, 1 × 10^6 CFU per mL, two-fold dilutions 0.5–32 μg/mL, 48 h, OD 600 nm, mean of three replicates): 4 µg/mL (≈ 1.87 µM)
MIC (C. acnes HL053PA1 [21]; C. acnes HL053PA1, RCM broth, anaerobic, 1 × 10^6 CFU per mL, two-fold dilutions 0.5–32 μg/mL, 48 h, OD 600 nm, mean of three replicates): 4 µg/mL (≈ 1.87 µM)
MIC (C. acnes HL056PA1 [22]; C. acnes HL056PA1, RCM broth, anaerobic, 1 × 10^6 CFU per mL, two-fold dilutions 0.5–32 μg/mL, 48 h, OD 600 nm, mean of three replicates): 4 µg/mL (≈ 1.87 µM)
MIC (C. acnes HL072PA1 [23]; C. acnes HL072PA1, RCM broth, anaerobic, 1 × 10^6 CFU per mL, two-fold dilutions 0.5–32 μg/mL, 48 h, OD 600 nm, mean of three replicates): 8 µg/mL (≈ 3.75 µM)
MIC (C. acnes HL082PA2 [24]; C. acnes HL082PA2, RCM broth, anaerobic, 1 × 10^6 CFU per mL, two-fold dilutions 0.5–32 μg/mL, 48 h, OD 600 nm, mean of three replicates): 2 µg/mL (≈ 0.936 µM)
in vitro anti-bacterial activity against the C. acnes bacterial strains (in words) [25]: most active
MIC values against all C. acnes isolates ([25]; span over ten antibiotic resistant isolates and two ATCC reference strains): 2 to 8 µg/mL
viability of human keratinocytes ([26]; 8 h incubation at 256 μg/mL, bioluminescent HaCaT): greater than 80%
EC10, concentration required to kill 10% of human keratinocytes ([26]; bioluminescent HaCaT, 1 × 10^4 cells/well, 8 h incubation, 2-fold dilutions from 1024 µg/mL, triplicate, IVIS imaging, GraphPad Prism 7): 246 µg/mL
Therapeutic Index (EC10 / MIC) ([27]; keratinocyte EC10 (8 h) versus MIC against HL043PA2 C. acnes): 30.8
Therapeutic Index (EC50 / MIC) ([27]; keratinocyte EC50 (8 h) versus MIC against HL043PA2 C. acnes): 35 and 35.1

MIC (C. acnes ATCC11827 [13]; ATCC11827, 48 h): >32 µg/mL
MIC (C. acnes ATCC6919 [14]; ATCC6919, 48 h): >32 µg/mL
MIC (C. acnes HL007PA1 [15]; HL007PA1, 48 h): >32 µg/mL
MIC (C. acnes HL013PA1 [16]; HL013PA1, 48 h): >32 µg/mL
MIC (C. acnes HL038PA1 [17]; HL038PA1, 48 h): >32 µg/mL
MIC (C. acnes HL043PA1 [18]; HL043PA1, 48 h): >32 µg/mL
MIC (C. acnes HL043PA2 [19]; HL043PA2, 48 h): >32 µg/mL
MIC (C. acnes HL045PA1 [20]; HL045PA1, 48 h): >32 µg/mL
MIC (C. acnes HL053PA1 [21]; HL053PA1, 48 h): >32 µg/mL
MIC (C. acnes HL056PA1 [22]; HL056PA1, 48 h): >32 µg/mL
MIC (C. acnes HL072PA1 [23]; HL072PA1, 48 h): >32 µg/mL
MIC (C. acnes HL082PA2 [24]; HL082PA2, 48 h): >32 µg/mL
SMILES: CC[C@H](C)[C@H](NC(=O)[C@H](CCCN)NC(=O)[C@H](CC(C)C)NC(=O)[C@H](CCCNC(=N)N)NC(=O)[C@@H](N)Cc1ccccc1)C(=O)N[C@@H](CCCCN)C(=O)N[C@@H](C)C(=O)N[C@@H](CCCN)C(=O)N[C@@H](CC(C)C)C(=O)N[C@@H](CCCCN)C(=O)N[C@H](C(=O)N[C@@H](CCCN)C(=O)N[C@H](C(=O)N[C@@H](CCCNC(=N)N)C(=O)N[C@@H](Cc1ccccc1)C(=O)N[C@@H](CCCCN)C(=O)N[C@@H](CC(C)C)C(N)=O)[C@@H](C)CC)C(C)C [RP568] (H-FRL[Orn]IKA[Orn]LKV[Orn]IRFKL-NH2)
in vitro anti-bacterial activity against the C. acnes bacterial strains (in words) [25]: negligible activity
EC50, concentration required to kill 50% of human keratinocytes ([26]; 8 h): 229 µg/mL
Therapeutic Index (EC50 / MIC) ([27]; 8 h): 7.16
